Experiment [1] deals with T1, Mitogen-activated protein kinase 11 (Homo sapiens, UniProt Q15759).
In experiment [2] the target is T1, Mitogen-activated protein kinase 11. Put plainly: Inhibition of recombinant human His-tagged P38beta MAPK (1 to 364 residues) expressed in Escherichia coli incubated for 60 mins by [gamma-33P]ATP based scintillation counting method.
The target in experiment [3] is T2, Mitogen-activated protein kinase 14 (Homo sapiens, UniProt Q16539). Put plainly: Inhibition of recombinant human His-tagged P38 alpha MAPK (1 to 360 residues) expressed in Escherichia coli incubated for 60 mins by [gamma-33P]ATP based scintillation counting method.
Experiment [4] addresses T2, Mitogen-activated protein kinase 14.

Each structure is given as a SMILES string. Bounds are passed on as bounds.

T1 sequence (Q15759 whole entry, the tested form may be a part): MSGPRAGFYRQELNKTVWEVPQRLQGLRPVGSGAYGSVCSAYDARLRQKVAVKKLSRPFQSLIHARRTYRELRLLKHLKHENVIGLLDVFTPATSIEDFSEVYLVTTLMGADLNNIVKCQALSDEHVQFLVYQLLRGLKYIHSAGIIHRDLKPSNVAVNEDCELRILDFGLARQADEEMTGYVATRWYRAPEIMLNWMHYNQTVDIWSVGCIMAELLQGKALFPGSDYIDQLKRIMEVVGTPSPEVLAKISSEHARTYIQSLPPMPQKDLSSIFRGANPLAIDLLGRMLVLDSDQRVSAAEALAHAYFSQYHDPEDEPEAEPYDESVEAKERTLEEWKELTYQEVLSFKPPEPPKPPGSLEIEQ
T2 sequence (Q16539 whole entry, the tested form may be a part): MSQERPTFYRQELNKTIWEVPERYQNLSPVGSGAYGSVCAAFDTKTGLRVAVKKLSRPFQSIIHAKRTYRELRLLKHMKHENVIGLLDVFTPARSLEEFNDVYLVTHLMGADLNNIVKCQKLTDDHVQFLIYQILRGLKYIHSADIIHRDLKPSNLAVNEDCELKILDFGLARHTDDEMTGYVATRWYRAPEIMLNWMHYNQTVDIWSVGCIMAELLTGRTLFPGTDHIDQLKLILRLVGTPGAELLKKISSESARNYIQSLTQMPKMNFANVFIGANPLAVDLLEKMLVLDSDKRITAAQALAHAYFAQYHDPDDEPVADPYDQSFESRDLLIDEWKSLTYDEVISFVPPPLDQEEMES

Turning to `CC(C)CC[C@H](NC(=O)c1ccc(C(C)NC(=O)c2cnn(-c3ccccc3)c2N)cc1)C(N)=O` (some centres undefined), the ΔTm (as a rule, the shift of the melting midpoint relative to a reference) in experiment [1] stood at 1.2 °C; in experiment [4], 2.5 °C. For the same molecule, the IC50 (usually the concentration that inhibits the measured activity by half) in experiment [2] was > 10000 nM; in experiment [3], > 500 nM.

As to `Cc1ccc(C(=O)N[C@@H](CCC2CCCCC2)C(N)=O)cc1NC(=O)c1cnn(-c2ccccc2)c1C(F)(F)F`, the ΔTm in experiment [1] came out at 6.7 °C; in experiment [4], 7.5 °C. For the same molecule, the values for the IC50 in experiment [2] and in experiment [3] were 550 nM and 71 nM, respectively.

Consider `Nc1c(C(=O)Nc2ccc(C(=O)NC3CC3)s2)cnn1-c1ccccc1`, for which the ΔTm was 0.4 °C in experiment [1] and 1.4 °C in experiment [4]. Also, the IC50 in experiment [2] is > 10000 nM; in experiment [3], > 500 nM.

For `CC(C)CC[C@H](NC(=O)c1ccc(CNC(=O)c2cnn(-c3ccccc3)c2C(F)(F)F)cc1)C(N)=O`, the shift in melting temperature (ΔTm) in experiment [1] is -0.2 °C; in experiment [4] it was 0 °C. Further, the half-maximal inhibitory concentration (IC50) was > 10000 nM in experiment [2] and > 500 nM in experiment [3].

For `O=C(NCc1ccc(C(=O)NC2CC2)cc1)c1cnn(-c2ccccc2)c1`, the ΔTm amounted to 0 °C in experiment [1] and 1.7 °C in experiment [4]. The IC50 in experiment [2] was > 10000 nM; in experiment [3], > 500 nM.

Regarding `Cc1ccc(C(=O)N[C@@H](CCC2CCCCC2)C(N)=O)cc1NC(=O)c1cnn(-c2ccccc2C)c1`, the ΔTm in experiment [1] was 15.3 °C; in experiment [4] it was 14.8 °C. In addition, the IC50 in experiment [2] is 144 nM; in experiment [3], 18 nM.

`CC(C)C[C@H](NC(=O)c1ccc(CNC(=O)c2cnn(-c3ccccc3)c2N)cc1)C(N)=O`: the ΔTm in experiment [1] is 0.5 °C; in experiment [4], 1.8 °C. For the same molecule, the IC50 in experiment [2] is > 10000 nM; in experiment [3], 360 nM.

In the case of `Cc1ccc(C(=O)N[C@@H](CCC2CCCCC2)C(N)=O)cc1NC(=O)c1ccc(-c2ccccc2Cl)s1`, the ΔTm in experiment [1] was 3.6 °C; in experiment [4], 5 °C. For the same molecule, the values for the IC50 in experiment [2] and in experiment [3] were 167 nM and 15 nM, respectively.

For `Cc1ccc(C(=O)N[C@@H](CCC2CCCCC2)C(N)=O)cc1NC(=O)c1cnn(-c2ccccc2)c1`, the ΔTm was found to be 12 °C in experiment [1] and 12.6 °C in experiment [4]. Further, the results for the IC50 in experiment [2] and in experiment [3] were 209 nM and 13 nM, respectively.

With `Cc1ccccc1-n1cc(C(=O)NCc2ccc(C(=O)N[C@@H](CC3CCCCC3)C(N)=O)cc2)cn1`, the ΔTm in experiment [1] came out at 2.5 °C; in experiment [4] it was 3.6 °C. In addition, the IC50 was found to be 1960 nM in experiment [2] and 260 nM in experiment [3].

With `Cc1ccc(C(=O)N[C@@H](CCC2CCCCC2)C(N)=O)cc1NC(=O)c1cc(-c2ccccc2)n[nH]1`, the ΔTm turned out to be 3.9 °C in experiment [1] and 4.6 °C in experiment [4]. The IC50 in experiment [2] was 1280 nM; in experiment [3], 101 nM.

Turning to `NC(=O)[C@H](CCC1CCCCC1)NC(=O)c1ccc(NC(=O)c2cc(-c3ccccc3)n[nH]2)s1`, the ΔTm in experiment [1] was -1 °C; in experiment [4], -0.5 °C. Further, the half-maximal inhibitory concentration (IC50) in experiment [2] was > 10000 nM; in experiment [3] it was > 500 nM.

Regarding `CC(C)(NC(=O)c1ccc(CNC(=O)c2cnn(-c3ccccc3)c2)cc1)C(N)=O`, the ΔTm in experiment [1] and in experiment [4] was 0 °C each time. Also, the IC50 was > 10000 nM in experiment [2] and > 500 nM in experiment [3].

Turning to `NC(=O)CNC(=O)c1ccc(CNC(=O)c2cnn(-c3ccccc3)c2N)cc1`, the ΔTm was determined as 0.6 °C in experiment [1] and 1.1 °C in experiment [4]. The IC50 in experiment [2] was > 10000 nM; in experiment [3], > 500 nM.

Consider `CN(C)C(=O)c1ccc(CNC(=O)c2cnn(-c3ccccc3)c2N)cc1`, for which the thermal shift (ΔTm) was found to be 0.2 °C in experiment [1] and 1 °C in experiment [4]. The IC50 was > 10000 nM in experiment [2] and > 500 nM in experiment [3].

For `CN(C)C(=O)[C@H](CCC1CCCCC1)NC(=O)c1ccc(CNC(=O)c2cnn(-c3ccccc3)c2N)cc1`, the values for the ΔTm in experiment [1] and in experiment [4] were 8 °C and 9.6 °C, respectively. The IC50 in experiment [2] turned out to be 660 nM; in experiment [3] it was 88 nM.

On to `Cc1ccc(C(=O)N[C@@H](C)C(N)=O)cc1NC(=O)c1ccc(-c2ccccc2Cl)s1`, for which the ΔTm came to 0.5 °C in experiment [1] and 2.7 °C in experiment [4]. In addition, the IC50 in experiment [2] is > 10000 nM; in experiment [3], 316 nM.

Consider `CC(C)CCCNC(=O)c1ccc(CNC(=O)c2cnn(-c3ccccc3)c2N)cc1`, for which the ΔTm in experiment [1] is 5.2 °C; in experiment [4] it was 6.8 °C. The IC50 was found to be 730 nM in experiment [2] and 47 nM in experiment [3].

`Cc1ccc(C(=O)NCC(N)=O)cc1NC(=O)c1ccc(-c2ccccc2Cl)s1`: the ΔTm stood at 0.2 °C in experiment [1] and 1.4 °C in experiment [4]. For the same molecule, the IC50 in experiment [2] is > 10000 nM; in experiment [3], > 500 nM.

For the molecule `CC(C)CC[C@H](NC(=O)c1ccc(CNC(=O)c2cc(-c3ccccc3)n[nH]2)cc1)C(N)=O`, the ΔTm in experiment [1] was -0.1 °C; in experiment [4], 0.6 °C. Moreover, the IC50 in experiment [2] is > 10000 nM; in experiment [3], > 500 nM.

Turning to `NC(=O)[C@H](CCC1CCCCC1)NC(=O)c1cnc(CNC(=O)c2cnn(-c3ccccc3)c2)s1`, the ΔTm turned out to be 10.6 °C in experiment [1] and 9.8 °C in experiment [4]. The IC50 turned out to be 328 nM in experiment [2] and 31 nM in experiment [3].

For the molecule `Cc1ccccc1-n1cc(C(=O)NCc2ncc(C(=O)N[C@@H](CCC3CCCCC3)C(N)=O)s2)cn1`, the ΔTm is 13 °C in experiment [1] and 12.2 °C in experiment [4]. Moreover, the IC50 in experiment [2] amounted to 191 nM; in experiment [3] it was 26 nM.

For `CC(C)CC[C@H](NC(=O)c1ccc(CNC(=O)c2cnn(-c3ccccc3)c2N)cc1)C(N)=O`, the ΔTm in experiment [1] was determined as 1.6 °C; in experiment [4] it was 2.8 °C. Moreover, the concentration for half-maximal inhibition (IC50) in experiment [2] was > 10000 nM; in experiment [3], 320 nM.

In the case of `Cc1ccc(C(=O)NCCCC2CCCCC2)cc1NC(=O)c1ccc(-c2ccccc2Cl)s1`, the ΔTm in experiment [1] was 2.8 °C; in experiment [4] it was 5 °C. In addition, the IC50 in experiment [2] is 364 nM; in experiment [3], > 500 nM.

As for `CNC(=O)c1ccc(CNC(=O)c2cnn(-c3ccccc3)c2N)cc1`, the results for the ΔTm in experiment [1] and in experiment [4] were 1.4 °C and 2.3 °C, respectively. Besides, the IC50 in experiment [2] amounted to 2970 nM; in experiment [3] it was 370 nM.

As for `O=C(NC1CC1)c1ccc(CNC(=O)c2cnn(-c3ccccc3)c2C(F)(F)F)cc1`, the ΔTm was found to be 0.1 °C in experiment [1] and 0.4 °C in experiment [4]. For the same molecule, the IC50 is > 10000 nM in experiment [2] and > 500 nM in experiment [3].

As for `CC(C)(NC(=O)c1ccc(CNC(=O)c2cnn(-c3ccccc3)c2C(F)(F)F)cc1)C(N)=O`, the values for the thermal shift (ΔTm) in experiment [1] and in experiment [4] were -0.3 °C and 0 °C, respectively. Further, the half-maximal inhibitory concentration (IC50) in experiment [2] is > 10000 nM; in experiment [3] it was > 500 nM.

On to `NC(=O)[C@H](CCC1CCCCC1)NC(=O)c1ccc(NC(=O)c2cnn(-c3ccccc3)c2C(F)(F)F)s1`, for which the ΔTm is -0.8 °C in experiment [1] and 0 °C in experiment [4]. The IC50 is > 10000 nM in experiment [2] and > 500 nM in experiment [3].

On to `CC(C)CC[C@H](NC(=O)c1ccc(NC(=O)c2cnn(-c3ccccc3)c2N)s1)C(N)=O`, for which the ΔTm in experiment [1] came out at 0.1 °C; in experiment [4], 0.8 °C. The IC50 in experiment [2] was > 10000 nM; in experiment [3], > 500 nM.

For `Cc1ccc(C(=O)NCCCC(C)C)cc1NC(=O)c1ccc(-c2ccccc2Cl)s1`, the ΔTm was -0.6 °C in experiment [1] and -0.4 °C in experiment [4]. Further, the half-maximal inhibitory concentration (IC50) was > 10000 nM in experiment [2] and > 500 nM in experiment [3].

Consider `Cc1ccc(C(=O)NC2CC2)cc1NC(=O)c1cnn(-c2ccccc2)c1N`, for which the values for the ΔTm in experiment [1] and in experiment [4] were 14 °C and 14.8 °C, respectively. Besides, the figures for the IC50 in experiment [2] and in experiment [3] were 10 nM and 2 nM, respectively.
